In paper PMC6001238, “Iterative Chemical Engineering of Vancomycin Leads to Novel Vancomycin Analogs With a High in Vitro Therapeutic Index” (Frontiers in Microbiology, 2018):
Converted amounts (≈) assume the structure as drawn.

Legend:
E. faecalis VRE 6 = experiment: MIC, broth microdilution, vancomycin-resistant E. faecalis VRE 6 (VanA); format: cell-based, Enterococcus faecalis; conditions: for MIC: Enterococcus faecalis VRE 6 (vancomycin-resistant), read-out: MIC; for MIC-fold improvement vs. vancomycin: VRE 6, ratio of MIC of vancomycin and MIC of analogue
Protocol: (§1) The minimum inhibitory concentration (MIC) was determined using the broth microdilution method according to the antimicrobial susceptibility testing standards of the clinical and laboratory standards institute ([Clinical and Laboratory Standards Institute [CLSI], 2012]). Ultrapure water and non-inoculated broth were used as controls. In one case, a final concentration of 10 μM vancomycin was included with the vancomycin analog or control antibiotic.

E. faecalis VRE 37 = experiment: MIC, broth microdilution, vancomycin-resistant E. faecalis VRE 37 (VanA); format: cell-based, Enterococcus faecalis; conditions: for MIC: Enterococcus faecalis VRE 37 (vancomycin-resistant), read-out: MIC; for MIC-fold improvement vs. vancomycin: VRE 37, ratio of MIC of vancomycin and MIC of analogue
Protocol: as §1

[1] = tested on: L1210, CEM and HeLa cell lines; experiment: Cytostatic activity, average or summary over L1210, CEM and HeLa; format: cell-based; conditions: average of L1210, CEM and HeLa; read-out: Toxicity (IC50) Average
Protocol: (§2) Murine leukemia (L1210), human T-lymphocyte (CEM) and the human cervix carcinoma (HeLa) cell line were suspended at 300,000–500,000 cells/mL of culture medium, and 100 μL of a cell suspension was added to 100 μL of an appropriate dilution of the test compounds in wells of 96-well microtiter plates. After incubation at 37°C for 2 (L1210), 3 (CEM), or 4 (HeLa) days, the cell number was determined using a Coulter counter. The IC50 was defined per cell type as the compound concentration required to inhibit cell proliferation by 50% compared to the negative control ([Glowacka et al., 2017]).

E. faecalis VSE 1 = experiment: MIC, broth microdilution, vancomycin-sensitive E. faecalis (VSE 1); format: cell-based, Enterococcus faecalis; conditions: for MIC: Enterococcus faecalis VSE 1 (vancomycin-sensitive), read-out: MIC; for MIC-fold improvement vs. vancomycin: VSE 1, ratio of MIC of vancomycin and MIC of analogue
Protocol: as §1

[2] = tested on: human cervix carcinoma (HeLa) cells; experiment: Cytostatic activity, HeLa cell proliferation; format: cell-based; conditions: mean ± SD of three experiments; highest concentration tested 250 µM; 4 days; read-out: Toxicity (IC50) HeLa
Protocol: as §2

S. aureus VRSA = experiment: MIC, broth microdilution, vancomycin-resistant S. aureus (VRSA); format: cell-based, Staphylococcus aureus; conditions: for MIC: Staphylococcus aureus VRSA, read-out: MIC; for MIC-fold improvement vs. vancomycin: VRSA, ratio of MIC of vancomycin and MIC of analogue
Protocol: as §1

[3] = tested on: human T-lymphocyte (CEM) cells; experiment: Cytostatic activity, CEM cell proliferation; format: cell-based; conditions: mean ± SD of three experiments; highest concentration tested 250 µM; 3 days; read-out: Toxicity (IC50) CEM
Protocol: as §2

E. faecalis VRE 53 = experiment: MIC, broth microdilution, vancomycin-resistant E. faecalis VRE 53 (VanA); format: cell-based, Enterococcus faecalis; conditions: for MIC: Enterococcus faecalis VRE 53 (vancomycin-resistant), read-out: MIC; for MIC-fold improvement vs. vancomycin: VRE 53, ratio of MIC of vancomycin and MIC of analogue
Protocol: as §1

S. aureus VISA/HIP5827 = experiment: MIC, broth microdilution, vancomycin-intermediate S. aureus VISA HIP5827; format: cell-based, Staphylococcus aureus; conditions: for MIC: Staphylococcus aureus VISA/HIP5827, read-out: MIC; for MIC-fold improvement vs. vancomycin: VISA/HIP5827, ratio of MIC of vancomycin and MIC of analogue
Protocol: as §1

[4] = tested on: Murine leukemia (L1210) cells; experiment: Cytostatic activity, L1210 cell proliferation; format: cell-based; conditions: mean ± SD of three experiments; highest concentration tested 250 µM; 2 days; read-out: Toxicity (IC50) L1210
Protocol: as §2

[5] = tested on: S. aureus VSSA (ATCC 6538); experiment: MIC, broth microdilution, vancomycin-sensitive S. aureus (VSSA/MSSA, ATCC 6538); format: cell-based, Staphylococcus aureus; conditions: for MIC: Staphylococcus aureus VSSA, read-out: MIC; for MIC-fold improvement vs. vancomycin: VSSA, ratio of MIC of vancomycin and MIC of analogue
Protocol: as §1

MRSA KS89 = experiment: MIC, broth microdilution, MRSA KS89; format: cell-based, Staphylococcus aureus; conditions: for MIC-fold improvement vs. vancomycin: MRSA KS8, ratio of MIC of vancomycin and MIC of analogue; for MIC: Staphylococcus aureus MRSA KS8, read-out: MIC
Protocol: as §1

E. faecalis VRE 29 = experiment: MIC, broth microdilution, vancomycin-resistant E. faecalis VRE 29 (VanA); format: cell-based, Enterococcus faecalis; conditions: for MIC: Enterococcus faecalis VRE 29 (vancomycin-resistant), read-out: MIC; for MIC-fold improvement vs. vancomycin: VRE 29, ratio of MIC of vancomycin and MIC of analogue
Protocol: as §1

Structure (SMILES) | MIC (E. faecalis VRE 6) | MIC-fold improvement vs. vancomycin (E. faecalis VRE 6) | MIC (E. faecalis VRE 37) | MIC-fold improvement vs. vancomycin (E. faecalis VRE 37) | IC50 [1] | MIC (E. faecalis VSE 1) | MIC-fold improvement vs. vancomycin (E. faecalis VSE 1) | IC50 [2] | MIC (S. aureus VRSA) | MIC-fold improvement vs. vancomycin (S. aureus VRSA) | IC50 [3] | MIC (E. faecalis VRE 53) | MIC-fold improvement vs. vancomycin (E. faecalis VRE 53) | MIC (S. aureus VISA/HIP5827) | MIC-fold improvement vs. vancomycin (S. aureus VISA/HIP5827) | IC50 [4] | MIC [5] | MIC-fold improvement vs. vancomycin [5] | MIC (E. faecalis VRE 29) | MIC-fold improvement vs. vancomycin (E. faecalis VRE 29) | other results
CNC(CC(C)C)C(=O)NC1C(=O)NC(CC(N)=O)C(=O)NC2C(=O)NC3C(=O)NC(C(=O)NC(C(=O)NCC(=O)Nc4ccc(-c5cnnn5C5OC(COC(C)=O)C(OC(C)=O)C(OC(C)=O)C5OC(C)=O)cc4)c4cc(O)cc(O)c4-c4cc3ccc4O)C(O)c3ccc(c(Cl)c3)Oc3cc2cc(c3OC2OC(CO)C(O)C(O)C2OC2CC(C)(N)C(O)C(C)O2)Oc2ccc(cc2Cl)C1O (stereo not drawn) [Vanc-78] | 3.13 µM (≈ 6.19 µg/mL) | 64 | 50 µM (≈ 98.9 µg/mL) | 8 | 186 µM | 0.78 µM (≈ 1.54 µg/mL) | 2 | 57 ± 32 µM | 3.13 µM (≈ 6.19 µg/mL) | 32 | > 250 µM | 50 µM (≈ 98.9 µg/mL) | 8 | 3.13 µM (≈ 6.19 µg/mL) | 2 | > 250 µM | 0.78 µM (≈ 1.54 µg/mL) | 1 | 50 µM (≈ 98.9 µg/mL) | 8 | MIC-fold improvement vs. vancomycin (MRSA KS89): 1; MIC (MRSA KS89): 0.78 µM (≈ 1.54 µg/mL)
CCCCCCCC[N+](C)(C)CCCNC(=O)c1ccc(NC(=O)CNC(=O)C2NC(=O)C3NC(=O)C(NC(=O)C4NC(=O)C(CC(N)=O)NC(=O)C(NC(=O)C(CC(C)C)NC)C(O)c5ccc(c(Cl)c5)Oc5cc4cc(c5OC4OC(CO)C(O)C(O)C4OC4CC(C)(N)C(O)C(C)O4)Oc4ccc(cc4Cl)C3O)c3ccc(O)c(c3)-c3c(O)cc(O)cc32)cc1 (stereo not drawn) [Vanc-81] | ≤0.39 µM | >512 | 25 µM | 16 | 179 µM | 0.78 µM | 2 | 122 ± 13 µM | 0.78 µM | 128 | > 250 µM | 25 µM | 16 | 6.25 µM | 1 | 164 ± 6 µM | 0.39 µM | 2 | 25 µM | 16 | MIC-fold improvement vs. vancomycin (MRSA KS89): 4; MIC (MRSA KS89): 0.20 µM
CNC(CC(C)C)C(=O)NC1C(=O)NC(CC(N)=O)C(=O)NC2C(=O)NC3C(=O)NC(C(=O)NC(C(=O)NCC(=O)Nc4ccc(C(=O)NCCCN(C)C)cc4)c4cc(O)cc(O)c4-c4cc3ccc4O)C(O)c3ccc(c(Cl)c3)Oc3cc2cc(c3OC2OC(CO)C(O)C(O)C2OC2CC(C)(N)C(O)C(C)O2)Oc2ccc(cc2Cl)C1O (stereo not drawn) [Vanc-82] | 6.25 µM (≈ 10.7 µg/mL) | 32 | >50 µM | <8 | > 250 µM | 1.56 µM (≈ 2.67 µg/mL) | 1 | > 250 µM | 3.13 µM (≈ 5.35 µg/mL) | 32 | > 250 µM | 50 µM (≈ 85.5 µg/mL) | 8 | >12.5 µM | <0.5 | > 250 µM | 1.56 µM (≈ 2.67 µg/mL) | 0.5 | >50 µM | <8 | MIC-fold improvement vs. vancomycin (MRSA KS89): 1; MIC (MRSA KS89): 0.78 µM (≈ 1.33 µg/mL)
CCCCC[N+](C)(C)CCCNC(=O)c1ccc(NC(=O)CNC(=O)C2NC(=O)C3NC(=O)C(NC(=O)C4NC(=O)C(CC(N)=O)NC(=O)C(NC(=O)C(CC(C)C)NC)C(O)c5ccc(c(Cl)c5)Oc5cc4cc(c5OC4OC(CO)C(O)C(O)C4OC4CC(C)(N)C(O)C(C)O4)Oc4ccc(cc4Cl)C3O)c3ccc(O)c(c3)-c3c(O)cc(O)cc32)cc1 (stereo not drawn) [Vanc-80] | 6.25 µM | 32 | 50 µM | 8 | 239 µM | 1.56 µM | 1 | 238 µM | 1.56 µM | 64 | > 250 µM | 50 µM | 8 | 6.25 µM | 1 | 230 ± 3 µM | 0.78 µM | 1 | 50 µM | 8 | MIC-fold improvement vs. vancomycin (MRSA KS89): 1; MIC (MRSA KS89): 0.78 µM
CCCC#Cc1ccc(NC(=O)CNC(=O)C2NC(=O)C3NC(=O)C(NC(=O)C4NC(=O)C(CC(N)=O)NC(=O)C(NC(=O)C(CC(C)C)NC)C(O)c5ccc(c(Cl)c5)Oc5cc4cc(c5OC4OC(CO)C(O)C(O)C4OC4CC(C)(N)C(O)C(C)O4)Oc4ccc(cc4Cl)C3O)c3ccc(O)c(c3)-c3c(O)cc(O)cc32)cc1 (stereo not drawn) [Vanc-68] | 3.13 µM (≈ 5.16 µg/mL) | 64 | 3.13 µM (≈ 5.16 µg/mL) | 128 | 39 µM | 0.78 µM (≈ 1.29 µg/mL) | 2 | 55 ± 20 µM | 1.56 µM (≈ 2.57 µg/mL) | 64 | 19 ± 1 µM | 3.13 µM (≈ 5.16 µg/mL) | 128 | 0.39 µM (≈ 0.643 µg/mL) | 16 | 42 ± 14 µM | 0.78 µM (≈ 1.29 µg/mL) | 1 | 3.13 µM (≈ 5.16 µg/mL) | 128 | –
